Data published in patent publication US20070043104A1, “UII-modulating compounds and their use” (priority 2005, published 2007).
Counter-ions that a name gives are not always drawn. Like-named read-outs stand apart in the source and are kept apart here.

Biological target: T1, human urotensin II receptor (Homo sapiens, UniProt Q9UKP6)
T1 construct: expressed in transfected cells; host or cells: NIH3T3 cells
T1 sequence (Q9UKP6 1-389): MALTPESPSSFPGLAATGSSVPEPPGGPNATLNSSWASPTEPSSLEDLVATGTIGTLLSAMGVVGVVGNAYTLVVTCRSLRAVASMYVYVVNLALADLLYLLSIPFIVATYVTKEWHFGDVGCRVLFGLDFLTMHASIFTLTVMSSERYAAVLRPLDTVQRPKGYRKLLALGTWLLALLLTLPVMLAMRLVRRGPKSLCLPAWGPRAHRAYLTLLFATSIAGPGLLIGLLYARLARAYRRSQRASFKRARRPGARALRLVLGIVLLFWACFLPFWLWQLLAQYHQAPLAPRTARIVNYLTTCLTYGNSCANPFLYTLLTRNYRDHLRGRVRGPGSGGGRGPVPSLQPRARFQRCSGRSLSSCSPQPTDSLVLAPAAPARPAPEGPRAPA
Assay: Receptor Selection and Amplification (R-SAT) functional assay, NIH3T3 cells transfected with human urotensin II receptor and β-galactosidase marker
Type: cell-based
Conditions: for EC50 / pEC50: eight doses in triplicate
Procedure: The functional receptor assay, Receptor Selection and Amplification Technology (R-SAT™), was used (with minor modifications from the procedure described previously (Brann, M. R. U.S. Pat. No. 5,707,798, 1998; Chem. Abstr. 1998, 128, 111548) to screen compounds for efficacy at the UII receptor. The RSAT assay was conducted as described herein.
Briefly, NIH3T3 cells were grown in tissue culture treated rollerbottles to 40-80% confluence in Dulbecco's modified Eagle's medium (DMEM) supplemented with 10% bovine calf serum (Hyclone) and 1% penicillin/streptomycin/glutamine (Invitrogen). Cells were transfected for 12-18 hours with the human urotensin II receptor and the β-galactosidase marker. After transfection, the cells were trypsinized, harvested and frozen in DMEM containing 10% DMSO. Frozen cells were later thawed and tested for a response to a control compound to perform quality control before initiation of pharmacological testing, ensuring the correct pharmacological response and sufficient sensitivity. To initiate the pharmacological assay, cells were thawed rapidly and prepared in DMEM media containing 0.4% calf serum (Hyclone), 30% UltraCulture (Biowhittaker), and 1% penicillin/streptomycin/glutamine (Invitrogen), and then plated at 10,000-40,000 cells per well of a 96½ area plate that contained either the test compounds or reference ligands. Cells were then grown in a humidified atmosphere with 5% ambient CO2 for five days. Media was then removed from the plates and marker gene activity was measured by the addition of the beta-galactosidase substrate ONPG (in PBS with 5% NP-40). The resulting colorimetric reaction was measured in a spectrophotometric plate reader (Titertek Inc.) at […].
pEC50 represents the negative logarithm of the concentration of ligand that caused 50% activation of the basal receptor response. Percent activation was calculated as the difference between the absorbance measurements in the absence of added ligand compared with that in the presence of saturating concentrations of ligand normalized to the absorbance difference for the reference ligand, which was assigned a value of 100%.
Results were determined in R-SAT assays and are expressed as pEC50, the negative of the log EC50 in molarity. Results are the average±standard deviation of 2-X determinations of the EC50 where each compound was tested in eight doses in triplicate.

[1] = NIH3T3, Table 3, percent activation normalized to the reference ligand assigned 100%, read-out: Efficacy
[2] = Table 3, negative of the log EC50 in molarity, average ± standard deviation (or range) of determinations
[3] = NIH3T3, Table 4, % efficacy normalized to UII at 100%
[4] = Table 4, negative of the log EC50 in molarity, average ± standard deviation of 2-5 determinations

Row | SMILES | Emax [1] [%] | EC50 [2] [nM] | pEC50 [2] | Emax [3] [%] | EC50 [4] [nM]
1 | CN(C)CCC(NC(=O)c1ccc(-c2ccccc2)cc1)c1ccc(Cl)cc1 (single isomer, unassigned; (-)) [(−) 5o, (−)-N-[1-(4-Chlorophenyl)-3-dimethylamino-propyl]-4-phenyl-benzamide oxalate] | 112 to 114 | 1150 to 1200 |  |  | 
2 | Cc1cccc(C(=O)NC(CCN(C)C)c2ccc(Cl)cc2)c1C.O=C(O)C(=O)O (stereo not shown) [5f, N-[1-(4-Chlorophenyl)-3-dimethylamino-propyl]-2,3-dimethyl-benzamide oxalate] | 159 ± 1 |  | 5.44 ± 0.08 |  | 
3 | CN(C)CCC(NC(=O)c1ccccc1)c1ccc(Cl)cc1.Cl (stereo not shown) [5a, N-[1-(4-Chlorophenyl)-3-dimethylamino-propyl]-benzamide HCl] | 158 ± 39 |  | 5.85 ± 0.01 |  | 
4 | CN(C)CCC(OC(=O)c1ccc(-c2ccccc2)cc1)c1ccc(Cl)cc1.Cl (stereo not shown) [4m, 1-(4-Chlorophenyl)-3-dimethylamino-propyl 4-phenyl-benzoate HCl] | 53 ± 27 |  | 6.28 ± 0.14 |  | 
5 | CN(C)CCC(NC(=O)c1ccc(Oc2ccccc2)cc1)c1ccc(Cl)cc1.O=C(O)C(=O)O (stereo not shown) [5p, N-[1-(4-Chlorophenyl)-3-dimethylaminopropyl]-4-phenoxy-benzamide oxalate] | 91 ± 17 |  | 7.18 ± 0.2 |  | 
6 | Cc1cc(Br)ccc1C(=O)OC(CCN(C)C)c1ccc(Cl)cc1.Cl (stereo not shown) [4g, 1-(4-Chlorophenyl)-3-dimethylamino-propyl 4-bromo-2-methyl-benzoate HCl] | 95 ± 37 |  | 5.97 ± 0.24 |  | 
7 | Cc1ccsc1C(=O)OC(CCN(C)C)c1ccc(Cl)cc1.Cl (stereo not shown) [4j, 1-(4-Chlorophenyl)-3-dimethylamino-propyl 3-methyl-thiophene-2-carboxylate HCl] | 119 ± 44 |  | 5.60 ± 0.05 |  | 
8 | CN(C)CCC(OC(=O)Nc1ccc(Oc2ccccc2)cc1)c1ccc(Cl)cc1 (stereo not shown) [7d, N-[1-(4-Chlorophenyl)-3-dimethylaminopropyloxycarbonyl]-4-phenoxyphenyl-amine] | 96 | 126 |  |  | 
9 | CN(C)CCC(NC(=O)Cc1ccccc1)c1ccc(Cl)cc1.O=C(O)C(=O)O (stereo not shown) [5r, N-[1-(4-Chlorophenyl)-3-dimethylaminopropyl]-2-phenyl-acetamide oxalate] | 154 ± 34 |  | 5.71 ± 0.16 |  | 
10 | Cc1cccc(Cl)c1C(=O)NC(CCN(C)C)c1ccc(Cl)cc1.O=C(O)C(=O)O (stereo not shown) [5k, N-[1-(4-Chlorophenyl)-3-dimethylamino-propyl]-6-chloro-2-methyl-benzamide oxalate] | 105 ± 4 |  | 5.29 ± 0.09 |  | 
11 | Cc1c(Cl)cccc1C(=O)OC(CCN(C)C)c1ccc(Cl)cc1.Cl (stereo not shown) [4f, 1-(4-Chlorophenyl)-3-dimethylamino-propyl 3-chloro-2-methyl-benzoate HCl] | 118 ± 37 |  | 5.95 ± 0.05 |  | 
12 | CO[C@@H](C(=O)NC(CCN(C)C)c1ccc(Cl)cc1)c1ccccc1 (single isomer, unassigned; (-)) [(−) 5s, oxalate] | 165 ± 10 | 871 |  |  | 
13 | CN(C)CCC(OC(=O)Nc1ccc(C(F)(F)F)cc1)c1ccc(Cl)cc1 (stereo not shown) [7i, N-[1-(4-Chlorophenyl)-3-dimethylaminopropyloxycarbonyl]-4-trifluoromethylphenyl-amine] | 70 to 114 | 178 to 309 |  |  | 
14 | Cc1ccc(S(=O)(=O)NC(CCN(C)C)c2ccc(Cl)cc2)cc1.O=C(O)C(=O)O (stereo not shown) [6a, N-[1-(4-Chlorophenyl)-3-dimethylaminopropyl]-4-methyl-benzenesulfonamide oxalate] | 74 ± 10 |  | 5.19 ± 0.09 |  | 
15 | Cc1ccc(C(=O)NC(CCN(C)C)c2ccc(Cl)cc2)c(C)c1.O=C(O)C(=O)O (stereo not shown) [5i, N-[1-(4-Chlorophenyl)-3′-dimethylamino-propyl]-2,4-dimethyl-benzamide oxalate] | 147 ± 29 |  | 5.81 ± 0.06 |  | 
16 | CN(C)CCC(NC(=O)c1ccc2ccccc2c1)c1ccc(Cl)cc1 (stereo not shown) [5n, N-[1-(4-Chlorophenyl)-3-dimethylamino-propyl]-2-naphthyl-carboxamide oxalate] | 109 ± 18 | 407 |  |  | 
17 | Cc1cc(C)c(C(=O)NC(CCN(C)C)c2ccc(Cl)cc2)cc1C.O=C(O)C(=O)O (stereo not shown) [5m, N-[1-(4-Chlorophenyl)-3-dimethylaminopropyl]-2,4,5-trimethyl-benzamide oxalate] | 152 ± 20 |  | 5.75 ± 0.22 |  | 
18 | CN(C)CCC(OC(=O)Nc1ccc2ccccc2c1)c1ccc(Cl)cc1 (stereo not shown) [7g, N-[1-(4-Chlorophenyl)-3-dimethylaminopropyloxycarbonyl]-2-naphthyl-amine] | 74 to 107 | 263 to 759 |  |  | 
19 | CN(C)CCC(OC(=O)c1ccc2ccccc2c1)c1ccc(Cl)cc1.Cl (stereo not shown) [4l, 1-(4-Chlorophenyl)-3-dimethylamino-propyl naphthalene-2-carboxylate HCl] | 49 ± 28 |  | 5.68 ± 0.04 |  | 
20 | CN(C)CCC(OC(=O)c1cn(C)c2ccccc12)c1ccc(Cl)cc1 (stereo not shown) [4o, 1-(4-Chlorophenyl)-3-dimethylamino-propyl 1-methyl-indole-3-carboxylate HCl] | 115 ± 71 | 1620 |  |  | 

More lines, now with the values ahead:

Row | Emax [1] [%] | EC50 [2] [nM] | pEC50 [2] | Emax [3] [%] | EC50 [4] [nM] | SMILES
21 | 176 to 231 | 1820 to 2340 |  |  |  | COc1ccc(NC(=O)NC(CCN(C)C)c2ccc(Cl)cc2)cc1 (stereo not shown) [8h, 1-[1-(4-Chlorophenyl)-3-dimethylaminopropyl]-3-(4-methoxyphenyl)-carbamide oxalate]
22 | 102 to 119 | 63.1 to 145 |  |  |  | CN(C)CCC(NC(=O)Nc1ccc(Oc2ccccc2)cc1)c1ccc(Cl)cc1 (stereo not shown) [8d, 1-[1-(4-Chlorophenyl)-3-dimethylaminopropyl]-3-(4-phenoxyphenyl)-carbamide oxalate oxalate]
23 | 75 to 111 | 110 to 178 |  |  |  | CN(C)CCC(NC(=O)Nc1ccc(-c2ccccc2)cc1)c1ccc(Cl)cc1 (stereo not shown) [8f, 1-[1-(4-Chlorophenyl)-3-dimethylaminopropyl]-3-(4-phenylphenyl)-carbamide oxalate]
24 |  |  |  | 101 ± 12 | 2950 | COc1ccc(CCC(=O)NC(CCN(C)C)c2ccc(Cl)cc2)cc1 (stereo not shown) [A6, N-[1-(4-Chlorophenyl)-3-dimethylamino-propyl]-3-(4-methoxyphenyl)propanamide HCl]
25 |  |  |  | 128 ± 10 | 427 | CN(C)CCC(NC(=O)/C=C/c1ccccc1)c1ccc(Cl)cc1 (stereo not shown) [A7, N-[1-(4-Chlorophenyl)-3-dimethylamino-propyl]-3-cinnamic amide HCl]
26 |  |  |  | 139 ± 5 | 1660 | CN(C)CCC(NC(=O)CCc1ccccc1)c1ccc(Cl)cc1 (stereo not shown) [A4, N-[1-(4-Chlorophenyl)-3-dimethylamino-propyl]-3-phenyl-propionamide HCl]
27 |  |  |  | 99 ± 4 | 513 | COc1ccc(C=CC(=O)NC(CCN(C)C)c2ccc(Cl)cc2)cc1 (stereo not shown) [A9, N-[1-(4-Chlorophenyl)-3-dimethylamino-propyl]-4-methoxy-cinnamic amide HCl]
28 |  |  |  | 73 ± 9 | 4570 | Cc1ccc(C(CCN(C)C)NC(=O)CCc2ccccc2)cc1 (stereo not shown) [B4, N-[3-Dimethylamino-1-(4-methylphenyl)propyl]-3-phenylpropionamide HCl]
29 | 101 ± 36 | 186 |  |  |  | CN(C)CCC(NC(=O)Nc1ccc(C(C)(C)C)cc1)c1ccc(Cl)cc1 (stereo not shown) [8c, 1-[1-(4-Chlorophenyl)-3-dimethylaminopropyl]-3-(4-tert-butylphenyl)-carbamide oxalate]
30 |  |  |  | 73 ± 10 | 1120 | CN(C)CCC(NC(=O)CCc1ccc(C(F)(F)F)cc1)c1ccc(Cl)cc1 (stereo not shown) [A5, N-[1-(4-Chlorophenyl)-3-dimethylamino-propyl]-3-(4-trifluoromethylphenyl) propionamide HCl]
31 |  |  |  | 106 ± 16 | 380 | COc1ccc(C=CC(=O)NC(CCN(C)C)c2ccc3ccccc3c2)cc1 (stereo not shown) [C9, N-[3-Dimethylamino-1-(2-naphthyl)propyl]-4-methoxy-cinnamic amide HCl]
32 |  |  |  | 83 ± 11 | 4170 | Cc1ccc(C(CCN(C)C)NC(=O)Cc2ccccc2)cc1 (stereo not shown) [B1, N-[3-Dimethylamino-1-(4-methylphenyl)propyl]-2-phenylacetamide HCl]
